Species on record: Rattus norvegicus
Assay: DrugMatrix - Regimen: Daily Repeat
Type: toxicity, organism-based, Sprague-Dawley
Design: regimen Daily Repeat, gender Male, age 6-8 weeks
Details: in vivo, ip, 50 mg/kg, route intraperitoneal, dose level High, […]; for ABSOLUTE BASOPHIL / ABSOLUTE EOSINOPHIL / ABSOLUTE LYMPHOCYTE / ABSOLUTE MONOCYTE / ABSOLUTE SEGMENTED NEUTROPHIL / BASOPHIL / EOSINOPHIL / ERYTHROCYTE COUNT / HEMATOCRIT / HEMOGLOBIN / LEUKOCYTE COUNT / LYMPHOCYTE / MEAN CORPUSCULAR HEMOGLOBIN / MEAN CORPUSCULAR HEMOGLOBIN CONCENTRATION / MEAN CORPUSCULAR VOLUME / MONOCYTE / NEUTROPHIL / NUCLEATED RED BLOOD CELLS / PLATELET COUNT: tissue Blood; for ALANINE AMINOTRANSFERASE / ALBUMIN / ALKALINE PHOSPHATASE / ASPARTATE AMINOTRANSFERASE / BLOOD UREA NITROGEN / CARBON DIOXIDE / CHLORIDE / CHOLESTEROL / CREATININE / GLUCOSE / LACTATE DEHYDROGENASE / LIPASE / PHOSPHORUS / POTASSIUM / SODIUM / TOTAL BILIRUBIN / TOTAL PROTEIN / URIC ACID: tissue Plasma

With `ClC(Cl)=C(Cl)C(Cl)=C(Cl)Cl` [HEXACHLOROBUTADIENE] the “ABSOLUTE BASOPHIL” value (72 h, time 3 day) was 0 CELLS/uL, the “ABSOLUTE EOSINOPHIL” value (72 h, time 3 day) was 265.33 CELLS/uL and the “ABSOLUTE LYMPHOCYTE” value (72 h, time 3 day) was 14659.33 CELLS/uL. The “ABSOLUTE MONOCYTE” value (72 h, time 3 day) was 513.33 CELLS/uL, the “ABSOLUTE SEGMENTED NEUTROPHIL” value (72 h, time 3 day) was 2862 CELLS/uL and the BASOPHIL (72 h, time 3 day) was 0%. For the same compound, the EOSINOPHIL (72 h, time 3 day) was 1.33%, the “ERYTHROCYTE COUNT” value (72 h, time 3 day) was 6.15 x10E6/uL and the HEMATOCRIT (72 h, time 3 day) was 36.87%. The HEMOGLOBIN (72 h, time 3 day) was 13.3 G/DL, the “LEUKOCYTE COUNT” value (72 h, time 3 day) was 18.3 x10E3/uL and the LYMPHOCYTE (72 h, time 3 day) was 80.67%. The “MEAN CORPUSCULAR HEMOGLOBIN” value (72 h, time 3 day) was 21.63 pg, the “MEAN CORPUSCULAR HEMOGLOBIN CONCENTRATION” value (72 h, time 3 day) was 36.1 G/DL and the “MEAN CORPUSCULAR VOLUME” value (72 h, time 3 day) was 60 fL. The MONOCYTE (72 h, time 3 day) was 2.67%, the NEUTROPHIL (72 h, time 3 day) was 15.33% and the “NUCLEATED RED BLOOD CELLS” value (72 h, time 3 day) was 0 /100WBC. The “PLATELET COUNT” value (72 h, time 3 day) was 1031 x10E3/uL, the “ALANINE AMINOTRANSFERASE” value (72 h, time 3 day) was 36.33 u/L and the ALBUMIN (72 h, time 3 day) was 4.23 G/DL. The “ALKALINE PHOSPHATASE” value (72 h, time 3 day) was 328.33 u/L, the “ASPARTATE AMINOTRANSFERASE” value (72 h, time 3 day) was 101 u/L and the “BLOOD UREA NITROGEN” value (72 h, time 3 day) was 11.67 mg/dL. For the same compound, the “CARBON DIOXIDE” value (72 h, time 3 day) was 30.33 mmol/L, the CHLORIDE (72 h, time 3 day) was 102 MEQ/L and the CHOLESTEROL (72 h, time 3 day) was 84.67 mg/dL. For the same compound, the CREATININE (72 h, time 3 day) was 0.16 mg/dL, the GLUCOSE (72 h, time 3 day) was 173 mg/dL and the “LACTATE DEHYDROGENASE” value (72 h, time 3 day) was 166 u/L. It also gave an LIPASE (72 h, time 3 day) of 9.67 u/L, a PHOSPHORUS (72 h, time 3 day) of 11.6 mg/dL and a POTASSIUM (72 h, time 3 day) of 6.25 MEQ/L. The SODIUM (72 h, time 3 day) was 147.3 MEQ/L, the “TOTAL BILIRUBIN” value (72 h, time 3 day) was 0.13 mg/dL and the “TOTAL PROTEIN” value (72 h, time 3 day) was 6.3 G/DL. For the same compound, the “URIC ACID” value (72 h, time 3 day) was 2.6 mg/dL, the “ABSOLUTE BASOPHIL” value (120 h, time 5 day) was 0 CELLS/uL and the “ABSOLUTE EOSINOPHIL” value (120 h, time 5 day) was 230 CELLS/uL. The “ABSOLUTE LYMPHOCYTE” value (120 h, time 5 day) was 9645 CELLS/uL, the “ABSOLUTE MONOCYTE” value (120 h, time 5 day) was 302 CELLS/uL and the “ABSOLUTE SEGMENTED NEUTROPHIL” value (120 h, time 5 day) was 1323 CELLS/uL. The BASOPHIL (120 h, time 5 day) was 0%, the EOSINOPHIL (120 h, time 5 day) was 2% and the “ERYTHROCYTE COUNT” value (120 h, time 5 day) was 5.76 x10E6/uL. The HEMATOCRIT (120 h, time 5 day) was 36.65%, the HEMOGLOBIN (120 h, time 5 day) was 13.3 G/DL and the “LEUKOCYTE COUNT” value (120 h, time 5 day) was 11.5 x10E3/uL. For the same compound, the LYMPHOCYTE (120 h, time 5 day) was 84.5%, the “MEAN CORPUSCULAR HEMOGLOBIN” value (120 h, time 5 day) was 23.1 pg and the “MEAN CORPUSCULAR HEMOGLOBIN CONCENTRATION” value (120 h, time 5 day) was 36.25 G/DL. The “MEAN CORPUSCULAR VOLUME” value (120 h, time 5 day) was 63.6 fL, the MONOCYTE (120 h, time 5 day) was 2.5% and the NEUTROPHIL (120 h, time 5 day) was 11%. For the same compound, the “NUCLEATED RED BLOOD CELLS” value (120 h, time 5 day) was 0 /100WBC, the “PLATELET COUNT” value (120 h, time 5 day) was 1216 x10E3/uL and the “ALANINE AMINOTRANSFERASE” value (120 h, time 5 day) was 39 u/L. For the same compound, the ALBUMIN (120 h, time 5 day) was 4.3 G/DL, the “ALKALINE PHOSPHATASE” value (120 h, time 5 day) was 279.5 u/L and the “ASPARTATE AMINOTRANSFERASE” value (120 h, time 5 day) was 100.5 u/L. For the same compound, the “BLOOD UREA NITROGEN” value (120 h, time 5 day) was 11.5 mg/dL, the “CARBON DIOXIDE” value (120 h, time 5 day) was 32.5 mmol/L and the CHLORIDE (120 h, time 5 day) was 101 MEQ/L. The CHOLESTEROL (120 h, time 5 day) was 106 mg/dL, the CREATININE (120 h, time 5 day) was 0.19 mg/dL and the GLUCOSE (120 h, time 5 day) was 171.5 mg/dL. The “LACTATE DEHYDROGENASE” value (120 h, time 5 day) was 160.5 u/L, the LIPASE (120 h, time 5 day) was 9.5 u/L and the PHOSPHORUS (120 h, time 5 day) was 13.95 mg/dL. For the same compound, the POTASSIUM (120 h, time 5 day) was 6 MEQ/L, the SODIUM (120 h, time 5 day) was 147.1 MEQ/L and the “TOTAL BILIRUBIN” value (120 h, time 5 day) was 0.2 mg/dL. For the same compound, the “TOTAL PROTEIN” value (120 h, time 5 day) was 6.6 G/DL, the “URIC ACID” value (120 h, time 5 day) was 1.75 mg/dL and the “ABSOLUTE BASOPHIL” value (time 14 day) was 0 CELLS/uL. The “ABSOLUTE EOSINOPHIL” value (time 14 day) was 146.4 CELLS/uL, the “ABSOLUTE LYMPHOCYTE” value (time 14 day) was 11678.6 CELLS/uL and the “ABSOLUTE MONOCYTE” value (time 14 day) was 306.2 CELLS/uL. For the same compound, the “ABSOLUTE SEGMENTED NEUTROPHIL” value (time 14 day) was 1488.8 CELLS/uL, the BASOPHIL (time 14 day) was 0% and the EOSINOPHIL (time 14 day) was 1.2%. For the same compound, the “ERYTHROCYTE COUNT” value (time 14 day) was 6.11 x10E6/uL, the HEMATOCRIT (time 14 day) was 35.9% and the HEMOGLOBIN (time 14 day) was 13.2 G/DL. The “LEUKOCYTE COUNT” value (time 14 day) was 13.62 x10E3/uL, the LYMPHOCYTE (time 14 day) was 86.4% and the “MEAN CORPUSCULAR HEMOGLOBIN” value (time 14 day) was 21.6 pg. The “MEAN CORPUSCULAR HEMOGLOBIN CONCENTRATION” value (time 14 day) was 36.82 G/DL, the “MEAN CORPUSCULAR VOLUME” value (time 14 day) was 58.64 fL and the MONOCYTE (time 14 day) was 2.2%. For the same compound, the NEUTROPHIL (time 14 day) was 10.2%, the “NUCLEATED RED BLOOD CELLS” value (time 14 day) was 0 /100WBC and the “PLATELET COUNT” value (time 14 day) was 1058.6 x10E3/uL. For the same compound, the “ALANINE AMINOTRANSFERASE” value (time 14 day) was 31.2 u/L, the ALBUMIN (time 14 day) was 4.2 G/DL and the “ALKALINE PHOSPHATASE” value (time 14 day) was 238.6 u/L. For the same compound, the “ASPARTATE AMINOTRANSFERASE” value (time 14 day) was 99.6 u/L, the “BLOOD UREA NITROGEN” value (time 14 day) was 13.8 mg/dL and the “CARBON DIOXIDE” value (time 14 day) was 30.8 mmol/L. It also gave a CHLORIDE (time 14 day) of 102 MEQ/L, a CHOLESTEROL (time 14 day) of 83.6 mg/dL and a CREATININE (time 14 day) of 0.2 mg/dL. For the same compound, the GLUCOSE (time 14 day) was 149.2 mg/dL, the “LACTATE DEHYDROGENASE” value (time 14 day) was 133.2 u/L and the LIPASE (time 14 day) was 10.4 u/L. The PHOSPHORUS (time 14 day) was 9.96 mg/dL, the POTASSIUM (time 14 day) was 5.75 MEQ/L and the SODIUM (time 14 day) was 145.2 MEQ/L. The “TOTAL BILIRUBIN” value (time 14 day) was 0.18 mg/dL, the “TOTAL PROTEIN” value (time 14 day) was 6.18 G/DL and the “URIC ACID” value (time 14 day) was 1 mg/dL.

Reference: ChEMBL document CHEMBL3885881, “DrugMatrix”
